# Experimental data from patent publication US5254574A, “New tetrazole derivatives, process for their preparation and their use” (Chemisch Pharmazeutische Forschungsgesellschaft m.b.H., priority 1991, dated 1993).
# Entries after “also recorded” stand apart in the source; their conditions may differ.
# Tests used:
# [1] = biological target: T1, Angiotensin II receptor (isolated rat aorta) (Rattus norvegicus, UniProt P25095); test: Isolated rat aorta, contractile force; cumulative angiotensin II dose-response curves with and without antagonist pretreatment; conditions: dose/effect curve of angiotensin II; FIG. 1, FIG. 2
# T1 construct: isolated rat aorta; from tissue; host or cells: isolated rat aorta
# T1 sequence (P25095 1-359): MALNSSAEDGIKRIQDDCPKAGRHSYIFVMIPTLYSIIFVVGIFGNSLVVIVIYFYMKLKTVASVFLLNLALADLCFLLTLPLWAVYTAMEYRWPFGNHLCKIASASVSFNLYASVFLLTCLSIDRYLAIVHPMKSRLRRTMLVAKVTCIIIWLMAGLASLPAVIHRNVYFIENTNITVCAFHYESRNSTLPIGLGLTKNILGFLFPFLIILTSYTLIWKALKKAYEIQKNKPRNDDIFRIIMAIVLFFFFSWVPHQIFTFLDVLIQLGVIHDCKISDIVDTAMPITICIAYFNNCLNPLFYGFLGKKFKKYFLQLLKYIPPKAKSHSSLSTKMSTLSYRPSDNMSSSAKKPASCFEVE
# Description: 1 or DuP 753 (10-8, 10^-7, 10^-6 mol/1, each) and results were expressed as percentage of maximum contraction obtained by addition of 10^-5 mol/1 noradrenaline.
# EP50 -values and pA2 -values were determined arithmetically.
# FIG. 1 Isolated rat aorta contractile force of subst. 1
# FIG. 2 Isolated rat aorta contractile force of DuP 753
# [2] = cited from earlier work
# [3] = test system: angiotensin II induced increases in mean arterial blood pressure; test: Anaesthetized normotensive rat: angiotensin II induced increases in mean arterial blood pressure after intraduodenal administration; conditions: FIG. 3
# Description: b) anaesthetized normotensive rat: Angiotension II (1 /ug/kg i.v.) was given before as well as in 15 minutes intervals after intraduodenal administration of the drugs.
# FIG. 3 The effects of DuP 753 and Subst. 1 on angiotension II induced increases in mean arterial bloodpessure in normotensive anaesthetized rats (n=4)
# angiotensin II receptor = conditions: Wong et al., 1990, JPET 255, 211-217; cited from earlier work
SMILES,mode of antagonism in vitro [1],metabolic conversion in vivo ([2]; literature),duration of action in vivo ([3]; DuP 753 compared with the substances according to the invention),conversion into active non-competitive metabolite in vivo ([3]; concluded from duration of action),mode of angiotensin II receptor antagonism (angiotensin II receptor),"contribution of metabolite to duration of action of DuP 753 ([2]; in vivo, Wong et al., 1990)"
"CCCCc1nc(Cl)c(CO)n1Cc1ccc(-c2ccccc2-c2nn[nH]n2)cc1 [DuP 753, 2-n-butyl-4-chloro-5-hydroxymethyl-1-((2'-(1-H-tetrazol-5-yl)biphenyl-4-yl)methyl)imidazole]",acts competitively in experiments in vitro,"converted into a non-competitive metabolite, EXP 3174",longer duration of action,conversion into an active non-competitive metabolite is detectable,,
"CCCCc1nc(Cl)c(C(=O)O)n1Cc1ccc(-c2ccccc2-c2nnn[nH]2)cc1 [EXP 3174, 2-n-butyl-4-chloro-1-((2'-(1H-tetrazol-5-yl)biphenyl-4-yl)methyl)-imidazole-5-carboxylic acid]",,,,,non-competitive irreversible angiotensin II receptor antagonist,responsible for the long duration of action; also recorded: largely responsible for the duration of action of DuP 753
